Laboratory results published in US7741540B2, “Compositions comprising D-amino acids” (BASF Plant Science GmbH, priority 2002, dated 2010).
Entries after “also recorded” stand apart in the source; their conditions may differ.

Assays:
[1] = system: Arabidopsis thaliana expressing Rhodotorula gracilis D-amino acid oxidase (dao1); assay: Growth of plants expressing D-amino acid oxidase on D-amino acid media in sterile agar culture; type: in vivo
From the text: Transgenic plants expressing D-amino acid oxidase were constructed essentially in the same way as the dsdA plants described above, with the following modifications: The dao1 gene (EC: 1.4.3.3 (SEQ ID NO: 6): NCBIU60066 (SEQ ID NO: 5)) from the yeast Rhodotorula gracilis (Rhodosporidium toruloides) was cloned with PCR with a cDNA library prepared from yeast grown on D-alanine containing medium to induce expression of the target gene, as a template. PCR primers were 5′-[…] (SEQ ID NO: 3) and 5′-[…] (SEQ ID NO: 4).
PCR was also performed with another set of primers, with one primer flanking the 5′ end of the open reading frame as set out above and a 3′ primer excluding the last […] nucleotides. The last nine nucleotides encode the signal peptide SKL, which guides the protein to the peroxisome sub-cellular organelle.
The resulting amplified sequences encode proteins which have the same amino acid sequence but which differ in the respect of their location in the cell. The truncated polypeptide, without the signal peptide, is expressed in the cytosol, while the full-length polypeptide is expressed in the peroxisome.
Construction of Arabidopsis thaliana plants expressing two variants of Rhodotorula gracilis D-amino acid oxidase were made as described above.

[2] = system: wild type Arabidopsis; assay: Growth of wild type plants on D-Asn or D-ile in sterile agar culture; type: in vivo, Arabidopsis thaliana
[3] = system: Hordeum vulgare; assay: Growth of wild-type seedlings on nitrate free agar media amended with D-serine; type: in vivo; settings: two to three weeks, 0, 0.3, 3 and 30 mM tested
Protocol: (§1) A. thaliana seeds from non-transformed plants and D-Serine ammonia-lyase transformed plants were surface sterilised with 70% ethanol and 0.1% Tween 80 for 10 minutes and rinsed briefly in 95% ethanol. 10 seeds were sown in each plate and the plates where thereafter sealed with gas permeable tape. The growth medium was half-strength MS (Murashige, T. & Skoog, F. Physiol Plant 15, 310-313 (1962)) (with 0.5% w/v sucrose and 0.8% w/v agar) with nitrogen either excluded or included as 3 mM nitrate. Filter sterilised D-serine was added to the medium after autoclaving. Plants were grown for 14 days after germination with a 16 h photoperiod at 24° C. Plants were extracted from the plates, washed three times in 0.5 mM CaCl2 and thereafter dried at 40° C. for 48 hours before dry weight measurements. The N content was determined on dried plants using an elemental analyser (PerkinElmer 2400 CHN). Biomass and nitrogen content were measured on a per plate basis and there were 10 plants per plate. Six independent transgenic lines were evaluated for their capacity to grow on D-serine and no substantial difference was noticed among the lines, although dsdA transcript levels varied substantially according to northern blot analyses. Seeds from Solanum esculentum, Hordeum vulgare, Zea mays, Populus tremuloides, Nicotiana tabacum and Arabidopsis thaliana were surface sterilised and grown for two to three weeks on agar media identical to the nitrate free media described above and amended with 0, 0.3, 3 and 30 mM D-serine.

[4] = system: Lycopersicon esculentum; assay: as above; type: in vivo; settings: two to three weeks, 0, 0.3, 3 and 30 mM tested
Protocol: as §1

[5] = system: Nicotiana tabacum; assay: as above; type: in vivo; settings: two to three weeks, 0, 0.3, 3 and 30 mM tested
Protocol: as §1

[6] = system: Populus tremuloides; assay: as above; type: in vivo; settings: two to three weeks, 0, 0.3, 3 and 30 mM tested
Protocol: as §1

[7] = system: Zea mays; assay: as above; type: in vivo; settings: two to three weeks, 0, 0.3, 3 and 30 mM tested
Protocol: as §1

[8] = system: wild-type Arabidopsis thaliana; assay: Growth of wild-type plants on sterile agar supplied with D-serine; type: in vivo; settings: for toxicity to wild-type plants: FIG. 3, FIG. 5
Protocol: as §1, with “D-serine. […] For A. thaliana, clear growth inhibition is observed at a concentration of 0.3 mM D-serine in the growth medium and total growth inhibition occurs at 3 mM (FIG. 3). Transgenic Arabidopsis thaliana plants expressing the gene encoding D-serine dehydratase were grown sterile alongside wild type plants on agar for 20 days on standard MS medium supplemented with varying concentrations of D-serine as the sole N source (30 mM, 3 mM, 0.3 mM) along with a control lacking any nitrogen.” for “D-serine.”

[9] = system: Somatic embryonic cell suspension cultures of Picea abies; assay: Somatic embryonic cell suspension cultures grown on a range of D-serine concentrations; type: cell-based; settings: 0, 0.3, 3 and 30 mM tested
Protocol: Somatic embryonic cell suspension cultures of Picea abies were grown on a range of D-serine concentrations; 0, 0.3, 3 and 30 mM D-serine. D-serine was lethal to cells at and above 3 mM.

[10] = system: dsdA-transformed embryos of Picea abies; assay: Selection of dsdA-transformed embryos on D-serine medium; type: cell-based
Protocol: The transformation method used was particle bombardment of a cell suspension. Somatic embryonic cell suspension cultures of Picea abies were grown on a range of D-serine concentrations; 0, 0.3, 3 and 30 mM D-serine. D-serine was lethal to cells at and above 3 mM.

[11] = system: transgenic Arabidopsis thaliana expressing E. coli D-serine ammonia-lyase (dsdA); assay: Growth and N content of transgenic plants expressing dsdA on D-serine media; type: in vivo
From the text: The E. coli gene dsdA (D-serine dehydratase (D-serine deaminase) [EC:4.3.1.18 (SEQ ID NO: 8)] NCBI accession number J01603 (SEQ ID NO: 7)) was amplified by PCR using primers 5′-[…] (SEQ ID NO: 1) and 5′-[…] (SEQ ID NO: 2). The PCR product was sub-cloned into pT-easy (Promega) and sequenced with DYEnamics cycle sequencing kit, (Amersham Pharmacia biotech). Alignment analysis with the database sequence confirmed successful full length cloning of dsdA. The clone was subsequently ligated into the BamH1 site of the CaMV 35S expression cassette of the binary vector pPCV702Km, which is a disarmed Ti-plasmid of Agrobacterium tumefaciens, to generate the vector pPCV702:dsdA. Restriction analysis of this vector with endonuclease confirmed orientation of insertion.
A. thaliana, ecotype Col-0, plants were transformed with Agrobacterium tumefaciens strain (GV3101:pMP90 RK) through vacuum infiltration (Clough, S. J. & Bent, A. F. Plant Journal. 16, 735-743 (1998)). Transformants were selected on kanamycin containing plates, and molecularly confirmed using northern blots. All analyses were performed using lines homozygous for the transgenic trait.
as §1, with “analyses.” for “analyses. Seeds from Solanum esculentum, Hordeum vulgare, Zea mays, Populus tremuloides, Nicotiana tabacum and Arabidopsis thaliana were surface sterilised and grown for two to three weeks on agar media identical to the nitrate free media described above and amended with 0, 0.3, 3 and 30 mM D-serine.”
Transgenic Arabidopsis thaliana plants expressing the gene encoding D-serine dehydratase were grown sterile alongside wild type plants on agar for 20 days on standard MS medium supplemented with varying concentrations of D-serine as the sole N source (30 mM, 3 mM, 0.3 mM) along with a control lacking any nitrogen.

[12] = system: Arabidopsis seedlings grown on soil; assay: Selection of transgenic seedlings on soil by spraying D-Serine; type: in vivo, Arabidopsis thaliana; settings: 30 mM sprayed three times during one week
[13] = system: wild type poplar; assay: Shoot formation on shoot inducing media with D-Ser; type: in vivo
[14] = system: wild type tobacco; assay: Shoot formation on shoot inducing media with D-Ser; type: in vivo
[15] = system: poplar transformed with dsdA; assay: Resistance of dsdA-transformed plants to D-Ser; settings: in vivo
From the text: (§2) Poplar and tobacco were transformed using the same vector and transformation protocol described above for the transformation of Arabidopsis.

[16] = system: tobacco transformed with dsdA; assay: Resistance of dsdA-transformed plants to D-Ser; settings: in vivo
From the text: as §2

**Q.** How did the “effect of expressed D-amino acid oxidase on toxicity of the D-amino acid” value ([1]; in vivo) turn out when `C[C@@H](N)C(=O)O` [D-alanine] was run?
**A.** alleviate the toxicity

**Q.** What does the source list for `CC[C@@H](C)[C@@H](N)C(=O)O` [D-ile]?
**A.** hindering of growth of transgenic plants expressing dao1 (compared with D-Asn) ([1]; in vivo): even more effective in hindering growth; wild type growth with increasing concentration ([2]; examined interval 0.3 to 30 mM): increase in growth; inhibitory effect on wild type plants ([2]; in vivo): no visible inhibitory effect

**Q.** With `N[C@H](CO)C(=O)O` [D-serine] as the compound, how does the “D-serine concentration in the media at which growth was inhibited” value [3] read?
**A.** 30 mM

**Q.** And the “D-serine concentration in the media at which growth was inhibited” value [4]?
**A.** 3 mM

**Q.** And the “D-serine concentration in the media at which growth was inhibited” value [5]?
**A.** 3 mM

**Q.** What about the “D-serine concentration in the media at which growth was inhibited” value [6] of the same compound?
**A.** 3 mM

**Q.** And the “D-serine concentration in the media at which growth was inhibited” value [7]?
**A.** 30 mM

**Q.** And the “growth of wild-type plants with increasing D-serine concentration” value ([8]; D-serine as sole N source, 0.3, 3, 30 mM (FIG. 3))?
**A.** No increase

**Q.** And the “concentration in the growth medium at which clear growth inhibition is observed” value ([8]; FIG. 3)?
**A.** 0.3 mM

**Q.** And the “concentration in the growth medium at which total growth inhibition occurs” value ([8]; FIG. 3)?
**A.** 3 mM

**Q.** What about the “toxicity to wild-type plants” value [8] of the same compound?
**A.** toxic effect

**Q.** And the “toxicity to wild-type plants” value ([8]; listed as D-ser)?
**A.** shows toxicity

**Q.** And the “growth and nitrogen content of wild-type plants with increasing D-serine concentration” value ([8]; in the presence of a basic level of nitrate (3 mM) (FIG. 5))?
**A.** opposite response

**Q.** And the “D-serine concentration in the media at which growth was inhibited” value ([8]; nitrate free agar, two to three weeks, 0, 0.3, 3 and 30 mM tested)?
**A.** 3 mM

**Q.** What about the “concentration lethal to cells” value [9] of the same compound?
**A.** ≥ 3 mM

**Q.** And the “D-serine concentration of medium on which transformed embryos could be selected” value [10]?
**A.** 3 mM

**Q.** And the “N concentration of plants compared with plants grown on 3 mM nitrate” value ([11]; 3 mM D-serine, ANOVA p<0.0001)?
**A.** significantly lower

**Q.** What about the “growth and N content of transgenic plants with increasing D-serine concentration” value ([11]; D-serine as sole N source, p<0.0001 (FIG. 4)) of the same compound?
**A.** increase significantly

**Q.** What about the “growth on D-serine compared with nitrate at equal concentration” value ([11]; FIG. 4(top) and 5(top)) of the same compound?
**A.** lower growth

**Q.** What about the “growth and nitrogen content of transgenic plants with increasing D-serine concentration” value ([11]; in the presence of a basic level of nitrate (3 mM), p<0.0001 (FIG. 5)) of the same compound?
**A.** increased significantly

**Q.** And the “toxicity symptoms in transgenic plants” value ([11]; within the observed range of D-Ser)?
**A.** no toxicity symptoms

**Q.** And the “selection of transgenic plants by spraying” value [12]?
**A.** Successful selection

**Q.** What about the “effect of expressed D-amino acid oxidase on toxicity of the D-amino acid” value ([1]; in vivo) of the same compound?
**A.** alleviate the toxicity

**Q.** What about the “concentration sufficient to stop all shoot formation” value [13] of the same compound?
**A.** 3 mM

**Q.** What about the “concentration sufficient to stop all shoot formation” value [14] of the same compound?
**A.** 30 mM

**Q.** And the “concentration to which transformed plants were resistant” value [15]?
**A.** exceeding 30 mM

**Q.** What about the “concentration to which transformed plants were resistant” value [16] of the same compound?
**A.** exceeding 30 mM

**Q.** With `NC(=O)C[C@@H](N)C(=O)O` [D-Asn] as the compound, how does the “growth / germination of D-amino oxidase expressing plants” value ([1]; 30 mM, sterile agar culture) read?
**A.** total inhibition of growth; also recorded: inhibited significantly more than the wild-type

**Q.** What about the “growth of wild type plants” value ([2]; 30 mM, sterile agar culture) of the same compound?
**A.** only partially retarded
